Laboratory results taken from paper PMC4297516 (Bioorganic & medicinal chemistry letters, 2014).

What was measured:
[1] = target: human D2 receptors expressed in stably transfected HEK 293 cells (Homo sapiens, UniProt P14416); assay: forskolin-dependent whole cell adenylyl cyclase inhibition assay, D2; type: cell-based; conditions: HEK293, read-out: Intrinsic activity hD2 HEK
[2] = target: human D3 receptors expressed in stably transfected HEK 293 cells (Homo sapiens, UniProt P35462); assay: forskolin-dependent whole cell adenylyl cyclase inhibition assay, D3; type: cell-based; conditions: HEK293, read-out: Intrinsic activity hD3 HEK
Sequence of human D3 receptors expressed in stably transfected HEK 293 cells (P35462 whole entry): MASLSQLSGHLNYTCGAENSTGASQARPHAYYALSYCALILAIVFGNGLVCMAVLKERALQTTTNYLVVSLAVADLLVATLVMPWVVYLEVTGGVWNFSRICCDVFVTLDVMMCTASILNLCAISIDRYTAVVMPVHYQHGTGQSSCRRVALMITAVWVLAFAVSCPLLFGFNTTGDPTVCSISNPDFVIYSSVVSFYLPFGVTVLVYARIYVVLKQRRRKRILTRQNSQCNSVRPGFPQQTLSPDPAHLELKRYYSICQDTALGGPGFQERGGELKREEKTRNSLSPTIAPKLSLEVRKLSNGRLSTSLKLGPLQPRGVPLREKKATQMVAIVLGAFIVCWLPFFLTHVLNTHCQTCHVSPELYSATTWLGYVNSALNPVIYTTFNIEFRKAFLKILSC

Sequence of human D2 receptors expressed in stably transfected HEK 293 cells (P14416 whole entry): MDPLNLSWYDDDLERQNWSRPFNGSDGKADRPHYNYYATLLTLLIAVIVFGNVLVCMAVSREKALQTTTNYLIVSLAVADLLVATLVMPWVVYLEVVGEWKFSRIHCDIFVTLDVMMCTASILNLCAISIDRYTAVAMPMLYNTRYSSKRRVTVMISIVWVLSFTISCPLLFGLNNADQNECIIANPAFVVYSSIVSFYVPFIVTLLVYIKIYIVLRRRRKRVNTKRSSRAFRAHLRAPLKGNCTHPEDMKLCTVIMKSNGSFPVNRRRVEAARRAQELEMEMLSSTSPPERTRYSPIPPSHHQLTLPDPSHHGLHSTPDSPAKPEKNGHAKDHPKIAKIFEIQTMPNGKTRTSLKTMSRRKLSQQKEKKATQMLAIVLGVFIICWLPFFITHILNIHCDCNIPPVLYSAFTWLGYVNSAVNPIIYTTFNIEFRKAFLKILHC

Row | Emax [1] | Emax [2] | Structure (SMILES)
1 | 33.5 ± 3.1% | 18.7 ± 2.2% | COc1ccccc1N1CCN(CCCCNC(=O)c2ccc(N(C)C)cc2)CC1 [WC 10, 4-(Dimethylamino)-N-[4-(4-(2-methoxyphenyl)piperazin-1-yl)butyl]benzamide]
2 | 35.3 ± 1% | – | COc1ccccc1N1CCN(CCCCNC(=O)c2ccc(CCF)cc2)CC1 [WC 44]
